# Measurements published in PubChem BioAssay (NCI).
#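 The concentration for 50% growth inhibition is given as GI50. TGI: total growth inhibition.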
# Tests used:
# Assay in all cases: DTP human tumour cell line panel, 384-well format
# OVCAR-5 ovarian = tested on: OVCAR-5 ovarian
# ACHN renal = tested on: ACHN renal
# MDA-MB-468 breast = tested on: MDA-MB-468 breast
# IGROV1 ovarian = tested on: IGROV1 ovarian
# OVCAR-4 ovarian = tested on: OVCAR-4 ovarian
# SNB-75 CNS = tested on: SNB-75 CNS
# HS 578T breast = tested on: HS 578T breast
# CCRF-CEM leukemia = tested on: CCRF-CEM leukemia
# SW-620 colon = tested on: SW-620 colon
# MDA-MB-231 breast = tested on: MDA-MB-231 breast
# UACC-62 melanoma = tested on: UACC-62 melanoma
# A498 renal = tested on: A498 renal
# T-47D breast = tested on: T-47D breast
# UACC-257 melanoma = tested on: UACC-257 melanoma
# LOX IMVI melanoma = tested on: LOX IMVI melanoma
# RPMI-8226 leukemia = tested on: RPMI-8226 leukemia
# MDA-MB-435 melanoma = tested on: MDA-MB-435 melanoma
# SF-295 CNS = tested on: SF-295 CNS
# A549 NSCLC = tested on: A549 NSCLC
# NCI-H226 lung = tested on: NCI-H226 lung
# RXF 393 renal = tested on: RXF 393 renal
# TK-10 renal = tested on: TK-10 renal
# CAKI-1 renal = tested on: CAKI-1 renal
# K-562 leukemia = tested on: K-562 leukemia
# COLO 205 colon = tested on: COLO 205 colon
# NCI-H460 NSCLC = tested on: NCI-H460 NSCLC
# MCF7 breast = tested on: MCF7 breast
# SK-MEL-5 melanoma = tested on: SK-MEL-5 melanoma
# HL-60(TB) leukemia = tested on: HL-60(TB) leukemia
compound,measurement,setting,value
COc1cc2c(Oc3ccc4[nH]c(C)cc4c3F)ncnc2cc1OCCCN1CCCC1,GI50,OVCAR-5 ovarian,1390 nM
same,TGI,OVCAR-5 ovarian,3.18 µM
same,GI50,ACHN renal,1200 nM
same,TGI,ACHN renal,2640 nM
same,GI50,MDA-MB-468 breast,1040 nM
same,TGI,MDA-MB-468 breast,2240 nM
same,GI50,IGROV1 ovarian,632 nM
same,TGI,IGROV1 ovarian,1950 nM
same,GI50,OVCAR-4 ovarian,1140 nM
same,TGI,OVCAR-4 ovarian,2430 nM
same,GI50,SNB-75 CNS,1320 nM
same,TGI,SNB-75 CNS,2740 nM
same,GI50,HS 578T breast,1260 nM
same,TGI,HS 578T breast,2530 nM
same,GI50,CCRF-CEM leukemia,1630 nM
same,TGI,CCRF-CEM leukemia,2990 nM
same,GI50,SW-620 colon,1630 nM
same,TGI,SW-620 colon,3.1 µM
same,GI50,MDA-MB-231 breast,1760 nM
same,TGI,MDA-MB-231 breast,3.53 µM
same,GI50,UACC-62 melanoma,1630 nM
same,TGI,UACC-62 melanoma,3000 nM
same,GI50,A498 renal,1240 nM
same,TGI,A498 renal,2590 nM
same,GI50,T-47D breast,1300 nM
same,TGI,T-47D breast,2580 nM
same,GI50,UACC-257 melanoma,1610 nM
same,TGI,UACC-257 melanoma,2970 nM
same,GI50,LOX IMVI melanoma,1620 nM
same,TGI,LOX IMVI melanoma,2990 nM
same,GI50,RPMI-8226 leukemia,1610 nM
same,TGI,RPMI-8226 leukemia,2970 nM
same,GI50,MDA-MB-435 melanoma,1770 nM
same,TGI,MDA-MB-435 melanoma,3.41 µM
same,GI50,SF-295 CNS,1730 nM
same,TGI,SF-295 CNS,3.13 µM
same,GI50,A549 NSCLC,1460 nM
same,TGI,A549 NSCLC,2970 nM
same,GI50,NCI-H226 lung,306 nM
same,TGI,NCI-H226 lung,1960 nM
same,GI50,RXF 393 renal,1380 nM
same,TGI,RXF 393 renal,2690 nM
same,GI50,TK-10 renal,1760 nM
same,TGI,TK-10 renal,3.28 µM
same,GI50,CAKI-1 renal,1050 nM
same,TGI,CAKI-1 renal,2360 nM
same,GI50,K-562 leukemia,1130 nM
same,TGI,K-562 leukemia,2370 nM
same,GI50,COLO 205 colon,1690 nM
same,TGI,COLO 205 colon,3.35 µM
same,GI50,NCI-H460 NSCLC,1780 nM
same,TGI,NCI-H460 NSCLC,3.27 µM
same,GI50,MCF7 breast,1400 nM
same,TGI,MCF7 breast,2740 nM
same,GI50,SK-MEL-5 melanoma,1300 nM
same,TGI,SK-MEL-5 melanoma,2580 nM
same,GI50,HL-60(TB) leukemia,1930 nM
same,TGI,HL-60(TB) leukemia,3.35 µM
